Test results reported in patent US8642559B2, “C-terminal domain truncation of mGluR1α by calpain and uses thereof” (priority 2006, dated 2014).
“Also recorded” adds a separate entry of the source.

Columns and labels:
mGluR1α [1] = assay: Glutamate/NMDA-induced C-terminal truncation of mGluR1α in cultured cortical neurons (immunoblot); format: cell-based
Excerpt: Total cell lysates were separated by SDS-PAGE and probed with an antibody against the carboxyl terminus (residue 1142-1160) of mGluR1α. […] Total cell lysates were probed with an anti-myc antibody. […] Total cell lysates were probed with antibodies against mGluR5, G1uR2/3 and VGluT1 respectively.
Total cell lysate was collected immediately after treatment and subjected to SDS-PAGE and immunoblotting with an antibody against the carboxyl terminus (residues 1142-1160) of mGluR1α (FIG. 2A). […] Neurons were transfected with a calcium phosphate precipitation method modified for high transfection rate (Jian et al., Gene Ther 11:1301-1311, 2004).
Cortical neurons were treated with NMDA at the indicated concentrations for 1 h or treated with NMDA (10 μM) for the indicated times. Total cell lysates were separated by SDS-PAGE and probed with antibodies against mGluR1α1142-1160, Results were normalized over control values and are means±s.e.m. of 4 experiments.
To determine whether activation of mGluR1α itself was required for the truncation, two distinct mGluR1α antagonists were applied.
To further characterize NMDA-induced mGluR1α truncation, the concentration- and time-dependencies of the effects of NMDA were studied. Cortical neurons were first incubated with different concentrations of NMDA for a fixed period of time (1 hour) (FIG. 3F). […] In a following experiment, cortical neurons were incubated with 10 μM NMDA for different durations ranging from 1 to 60 min (FIG. 3G).
Cortical neurons were treated with NMDA (10 μM, 1 h). Total cell lysates were separated by SDS-PAGE and probed with antibodies against spectrin and mGluR1α1142-1160, respectively. Only the degradation bands of spectrin (spectrin DB, at ˜145 KD) are shown. […] In FIG. 4C, purified myc-mGluR1α was digested with μ-calpain at the indicated concentrations (U/ml) for 30 min. The digested material was processed for SDS-PAGE and subjected to silver staining or immunoblots with anti-myc or anti-mGluR1α1142-1160 antibodies. […] The 1st lane was the myc-mGluR1α immunoprecipitated from 293 cells; the 2nd and 3rd lanes were immunoprecipitated myc-mGluR1α digested with indicated concentration of calpain. […] FIG. 4F is the alignment of mGluR1 (902-941) and mGluR5 (889-927) surrounding the calpain cleavage site.
In this set of experiments, we determined which protease(s) mediated NMDA-induced truncation of mGluR1α. […] Cortical neurons were pretreated with a calpain inhibitor, the cell-permeable calpain-inhibitor III, or the caspase inhibitor cpm-VAD-CHO for 2 hours and then incubated in the absence or presence of 100 µM NMDA for 1 hour. […] To further confirm calpain activation by NMDA under our experimental conditions, we determined the levels of the calpain-specific spectrin degradation fragments.

myc-mGluR1α = assay: Targeting of myc-mGluR1α in transfected cortical neurons after NMDA (immunostaining); format: cell-based; settings: NMDA 50 μM, 1 hour; 124 out of 367 neurons
Description: In FIG. 7A, cortical neurons were co-transfected with DsRED and myc-mGluR1α. After 48 h, neurons were fixed and stained with anti-myc and anti-DsRED antibodies. Some of the neurons were pre-treated with NMDA (50 μM, 1 h), and recovered for 3 h after washing out NMDA before fixation. Myc-mGluR1α (upper panel) was absent in axons (arrowhead) under control conditions. After pre-treatment with NMDA (lower panel), staining of myc-mGluR1α appeared in the proximal segment of axons. In FIG. 7B, cortical neurons were co-transfected with DsRED and myc-mGluR1α. After 48 h, neurons were fixed and stained with anti-DsRED and anti-mGluR1α1142-1160 antibodies with (lower panel) or without (upper panel) pretreatment with NMDA. Staining for mGluR1α was absent from axons in both conditions. In FIG. 7C, cortical neurons were co-transfected with DsRED and myc-mGluR1α936Δ. After 48 h, neurons were fixed and stained with anti-myc and anti-DsRED antibodies. […]
Previous studies have shown that the C-terminus domain of mGluR1α is crucial for its dendritic localization. […] But in ˜34% of neurons treated with NMDA (124 out of 367 neurons counted), the N-terminal fragment of wild-type mGluR1α could be detected in axons, especially in the proximal segment, whereas immunoreactivity against the C-terminus of mGluR1α was still restricted to dendrites (FIG. 7B).

cortical neurons = assay: NMDA/DHPG neuronal toxicity in cortical neurons (EthD-1/Calcein AM live/dead); format: cell-based; settings: 100 μM NMDA for 1 hour; 24 hours after treatment
Excerpt: In FIGS. 8a and b, cortical neurons were co-transfected with green fluorescent protein (GFP) and vector DNA, myc-mGluR1α or myc-mGluR1α936Δ, respectively. […] Twelve hours later, neurons were stained with EthD-1 to label dead cells. Arrowheads in FIG. 8a indicate EthD-1 positive GFP-expressing neurons. * p<0.05. FIGS. 8c and d are representative photos and bar graphs showing differential roles of endogenous mGluR1 in neuronal toxicity before and after NMDA-induced truncation. Cortical neurons were treated as indicated and were stained with EthD-1 (for dead cells) and calcein AM (for live cells) 24 hours later. * p<0.001.
We then tested whether calpain-mediated truncation of endogenous mGluR1α also alters its roles in excitotoxicity. We used NMDA to elicit mGluR1α truncation and evaluated the roles of mGluR1 in neuronal toxicity by applying DHPG before and after truncation. Fourteen DIV cortical neurons cultured on 18×18 mm coverslips were divided into 6 groups, which received the following treatments, respectively: 1) “Control”: vehicle; 2) “NMDA”: 100 μM NMDA for 1 hour; 3) “DHPG before NMDA”: DHPG, 100 μM, for 1 hour, followed by 100 μM NMDA for 1 hour; 4) “DHPG after NMDA”: NMDA, 100 μM, for 1 hour, followed by 100 μM DHPG for 1 hour; 5) “DHPG+LY before NMDA”: 100 μM DHPG was co-applied with 100 μM LY367385 for 1 hour and followed by 100 μM NMDA for 1 hour; 6) “DHPG+LY after NMDA”: NMDA 100 μM for 1 hour, followed by 100 μM DHPG co-applied with 100 μM LY367385. Twenty-four hours after treatment, all neurons were stained for 20 minutes with 0.5 μM EthD-1 to label dead cells and 2 μM Calcein AM to label live cells. After three washes with culture medium, coverslips were mounted and one microscopy photo was immediately taken from the center area of each coverslip. EthD-1 and Calcein AM positive cells on each photo were then counted. The percentage of cell death was calculated as the number of EthD-1 positive cell/(number of EthD-1 positive cell+number of Calcein AM positive cell)*100%.

cultured neurons = assay: Blockade of NMDA neurotoxicity in cultured neurons (live/dead cell assay); format: cell-based; settings: peptide 8 μM, pretreated 90 min; NMDA 50 μM 1 h; analyzed 12 h later
Description: In this figure, cultured neurons were pretreated with the tat-peptide for 90 min. They were then treated with NMDA (50 μM) for 1 h. They were analyzed 12 h later by live/dead cell assay (0.5 μM EthD-1 and 2 μM Calcein AM).

mGluR1α [2] = assay: In vivo truncation of mGluR1α in hippocampus after kainic acid injection; settings: peptide i.p. 90 min before kainic acid 30 mg/kg s.c., mice
Description: (§1) The tat-peptide was injected i.p. 90 min before kainic acid injection. Note that the peptide had no effect on seizure intensity (bottom left).
The objective of this set of experiments was to verify that the feedback mechanism of the present invention could take place in vivo and participate in excitotoxicity. We used the kainic acid model of excitotoxicity, as this model has been widely used to study the mechanisms underlying in vivo excitotoxicity (Wang et al. Mol Neurobiol 31:3-16, 2005). Mice were injected with kainic acid and sacrificed at different times after injection. Levels of mGluR1α were determined in hippocampus with both Western blots and immunohistochemistry (FIG. 10).

hippocampal neurons = assay: Kainic acid-induced neuronal damage (silver staining) and seizures in mice; format: in vivo
Description: as §1
They were sacrificed after 7 days and brains processed for silver staining, a marker of cell damage. Note the heavy labeling of the pyramidal cell layer in the KA alone group.
The effect of the tat-mGluR1 peptide on kainic acid-induced neuronal damage was also evaluated.

mGluR1 = assay: Brain membranes treated with purified calpain and calcium: mGluR1 truncation; format: biochemical; settings: purified calpain, calcium
Description: (§2) As previously mentioned, calpain inhibitors were previously shown to exert neuroprotective effects in some models of neurodegeneration, and it could be argued that the effects of the tat-mGluR1 peptide we observed were due to some calpain inhibitor effects of the peptide. However, the inventors of the present invention have discovered that this is not likely the case. In particular, when brain membranes were treated with purified calpain in the presence of calcium, truncation of both mGluR1 and spectrin was observed. […] The inventors believe that the peptide acts as a calpain substrate competing with mGluR1 for calpain. The selective protection of tat-mGluR1 has the advantage that it may act as a selective blocking agent without disrupting calpain's other enzymatic activities. Thus, a blocking agent of the present invention will have the advantage of having reduced side-effect profile than calpain inhibitors.

spectrin = assay: Brain membranes treated with purified calpain and calcium: spectrin degradation; format: biochemical; settings: purified calpain, calcium
Description: as §2

[3] = test system: cultured hippocampal slices; assay: OGD-induced cell death in cultured hippocampal slices (LDH release, PI uptake); format: cell-based; settings: 10 μM for 3 h before and during OGD (30 min); 3 h and 24 h after OGD
Description: Cultured slices were subjected to OGD for 30 min, and returned to normal glucose and oxygen conditions for 24 h. Neuronal damage was assessed by the propidium iodide (PI) uptake method, which labels damaged cells (a, b), and by LDH release in culture medium (c).
We used a well-known in vitro stroke model, combined oxygen/glucose deprivation in cultured hippocampal slices, to test the idea that the mechanism we have proposed, i.e., calpain-mediated truncation of mGluR1, accounts for neuronal death in stroke. Furthermore, we tested the neuroprotective effects of the tat-mGluR1 peptide in this stroke model. In this model, cultured hippocampal slices are treated for various periods of time (30-60 min) by changing the cultured medium to a medium without glucose and replacing the normal air/5% CO2 with nitrogen. After this period of time, slices are returned to normal glucose-containing medium and exposed to air/5% CO2 and are cultured for again various periods of time. Cell death is evaluated by measuring the amount of LDH release in the medium at various times, as well as by the extent of Propidium Iodide (PI) uptake in the cells (LDH release in the medium is an index of membrane damage, as LDH is a cytoplasmic enzyme; likewise, PI is generally not taken up by cells, except if the cell membrane is severely compromised).

mGluR1α [4] = assay: OGD-induced mGluR1 truncation in cultured hippocampal slices (immunoblot); format: cell-based; settings: longer OGD (50-min), 6 or 24 hours recovery
Description: Cultured hippocampal slices were subjected to 50-min OGD and returned to normal culture condition for another 6 or 24 hours.

In the case of `CN[C@H](CC(=O)O)C(=O)O` [NMDA], the “minimum time required to induce truncation” value (mGluR1α [1]; 10 μM NMDA) is reported as 5 min, the “treatment time after which truncation was maximal” value (mGluR1α [1]; 10 μM NMDA) is reported as 20 min and the EC50 (mGluR1α [1]; 1 hour incubation) is reported as roughly 10 µM. The “minimum concentration required to induce a significant mGluR1α truncation” value (mGluR1α [1]; 1 hour incubation) was 10 µM, the “neurons with N-terminal fragment of mGluR1α detected in axons” value (myc-mGluR1α) was roughly 34% and the cell death (cortical neurons) was 37%.

With “YGRKKRRQRRRVIKPLTKSYQGSGK [tat-mGluR1 peptide]” the “prevention of NMDA-mediated neurotoxicity” value (cultured neurons) was “almost completely prevented”, the “reduction of kainic acid-induced mGluR1 truncation” value (mGluR1α [2]) was “significantly reduced” and the “effect on kainic acid-induced neuronal damage (silver staining of pyramidal cell layer)” value (hippocampal neurons; peptide 100 mg/kg i.p. 90 min before kainic acid 30 mg/kg s.c., 7 days) was “dramatically reduced; also recorded: significantly reduced”. For the same compound, the “effect on severity or duration of kainic acid-induced seizures” value (hippocampal neurons; peptide i.p. 90 min before kainic acid) was “did not influence”, the “prevention of calpain-mediated mGluR1 truncation” value (mGluR1) was “prevented” and the “prevention of calpain-mediated spectrin degradation” value (spectrin) was “not”. For the same compound, the “neuroprotection assessed with LDH release” value [3] was “complete neuroprotection”, the “neuroprotection assessed with PI uptake” value [3] was “complete neuroprotection” and the “block of OGD-induced mGluR1 truncation” value (mGluR1α [4]) was “almost completely blocked”. For the same compound, the “block of OGD-induced mGluR1 truncation” value (mGluR1α [4]; listed as TAT-mGluR1α fusion peptide) was “partially restored”.
